Experimental data as given in patent US6583179B2, “Substituted aminoalkylamide derivatives as antagonists of follicle stimulating hormone” (Ortho-McNeil Pharmaceutical, Inc., priority 1999, dated 2003).

Assays:
[1] = test system: mature cycling female Wistar rats; assay: Interruption of 4-day estrus cycle; assay type: in vivo, rat; conditions: 20 mg/kg BID oral through 2 estrus cycles; for Estradiol Concentration / Progesterone Concentration: blood on morning of estrus; for # Ovulated Eggs: eggs in the oviduct
Protocol: The estrus cycles of mature cycling female Wistar rats (250 g) were monitored for 2 consecutive estrus cycles to select animals with regular 4-day estrus cycles. The animals were randomly assigned to treatment groups on the morning of estrus. Starting on the morning of estrus and continuing through 2 estrus cycles, the animals orally dosed with vehicle or test compound at a concentration of 20 mg/kg; BID. At the end of the second estrus cycle, blood samples were collected by orbital puncture on the morning of estrus. The animals were then sacrificed, and the number of ovulated eggs in the oviduct were counted.

[2] = test system: immature male Wistar rats; assay: Effects on spermatogenesis in immature male rats; assay type: in vivo, rat; conditions: 20 mg/kg BID for 25 days; for Serum Testosterone (t = 3 hr, d = 25): 3 hr after dosing; for Mating Sperm: animals with sperm / animals
Protocol: Twenty-one day old immature male Wistar rats (Charles River) were treated with FSH antagonist at a concentration of 20 mg/kg BID for 25 days. On the penultimate day of treatment, blood samples were collected by orbital puncture immediately prior to oral dosing, and 3 hours after dosing into Vacutainers containing EDTA. On the last day of treatment, blood samples were again collected prior to time of compound administration. The concentrations of LH, FSH and testosterone were measured in the plasma. Testosterone was measured using a Coat-A-Count kit (Diagnostic Products Corp.) and luteinizing hormone and follicle stimulating hormone concentrations were measured following previously established. At the end of the treatment period, the animals were sacrificed, testes and prostates were collected and weighed, and the testes were prepared for histological examination. The presence of sperm in testes were evaluated by hematoxylin and eosin staining, and in separate slides with a BERG stain (REF, 1963).

Rat Granulosa Cell = assay: Rat granulosa cell FSH-stimulated cAMP production; assay type: cell-based; conditions: inhibition of cAMP produced by EC70 dose of FSH (1.4 nM), maximum concentration 50 μM
Protocol: Insulin, diethylstilbesterol, androstenedione, forskolin and DMSO were purchased from Sigma (St. Louis, Mo.). Fungizone, penicillin/streptomycin, charcoal-treated heat inactivated fetal bovine serum (CT-HI-FBS) and Dulbecco's Modified Eagle Medium:Hams F12 medium containing 15 mM Hepes and L-glutamine (DMEM:F12), were purchased from GIBCO BRL (Grand Island, N.Y.).
Ovine FSH (NIADDK-oFSH-17; FSH potency=20 NIH-FSH-S1 U/mg; LH contamination=0.04 times NIH-LH-S1) was received from Ogden Bioservices Corporation, Rockville, Md. Human FSH (Fertinex), was purchased from Serono Pharmaceutical (Framingham, Mass.). Human chorionic gonadotropin (hCG) was purchased from Sigma (St Louis, Mo.).
Immature intact female rats (Wistar-derived strain; 21-23 days old) were implanted with a single pellet (Innovative Research of America, Sarasota, Fla.) containing 2.5 mg diethylstilbesterol (DES) for 3 days. On the third day, the animals were sacrificed, the ovaries were removed, and the granulosa cells were isolated essentially as described in Haynes-Johnson et al., Biol. Reprod., 61 (1), 147-153, (1999). Granulosa cells were plated at a density of 300,000 cells per ml with 0.2 ml added to each well of 96 well culture dishes (Corning, N.Y.). Cultures were incubated at 37° C. in a humidified incubator (95% air, 5% CO2) overnight (18 hours).
Androstenedione (100,000X) was prepared by dissolving the steroid in 100% ethanol, and was subsequently diluted to a final concentration of 10^−7M containing 0.1% ethanol in assay media. The assay media was serum-free, DES-free, insulin-free media, prepared by adding 5 mL pen-strep,1.5 mL fungizone and 5 μL androstenedione to 493.5 mL DMEM F-12 media.
Test compounds were solubilized in 30% dimethyl sulfoxide (DMSO) at a concentration of 10 mM before diluting to appropriate concentrations in assay medium. The final DMSO concentration in the treated cells and in the control cells was 0.75%.
Test plates containing the granulosa cells were preincubated for 18 hours at 37° C. with 95% air, 5% CO2, 100% humidity. The spent media was removed and 50 μl assay media (DMEM:F12) containing 2 mM IBMX (3-isobutyl-1-methyl-xanthine) was added to the cells. Compounds (25 μl) in the appropriate concentration were added followed 5 minutes later by an EC70 dose of FSH (25 μl; 50 ng/ml; 1.4 nM). After 30 minutes @ 22.5° C. (room temperature) the reaction was terminated by addition of 25 μL 0.5 N hydrochloric acid to each well. The amount of cAMP produced was measured by radioimmunoassay in a FlashPlate (DuPont, Boston, Mass.). To each flash plate 60 μL flash plate buffer was added followed by 40 μL acidified cell sample or cAMP standard, followed with the addition of 100 μl ^125l-cAMP trace. The FlashPlates were sealed, incubated overnight @ room temperature, and counted in a Packard TopCount (Packard Instrument Co., Meriden, Conn.). The cAMP radioimmunoassay results were calculated using DPM conversion and log-logit transformation of % binding (Excel program).

| EC50 (Rat Granulosa Cell) | Structure (SMILES) | Estradiol Concentration [1] | Progesterone Concentration [1] | # Ovulated Eggs [1] | Prostate Weight [2] | Testes Weight [2] | Serum Testosterone (t = 3 hr, d = 25) [2] | Mating Sperm [2] |
| --- | --- | --- | --- | --- | --- | --- | --- | --- |
| 0.02 µM | C[C@@H](CN(CC(=O)NCc1ccc(CN)cc1)S(=O)(=O)c1ccc(-c2ccccc2Cl)cc1)c1ccccc1 [Compound 198] | 20.1 ± 4.4 | 3.6 ± 0.9 | 14.0 | 1.6 ± 0.2 | 8.8 ± 0.2 | 3.6 ± 0.6 | 3/4 |
| 0.01 µM | Cc1ccccc1-c1ccc(S(=O)(=O)N(CC(=O)NCc2ccc(CN)cc2)C[C@@H](C)c2ccccc2)cc1 [Compound 215] | 22.2 ± 4.2 | 2.6 ± 0.6 | 16.3 | 1.8 ± 0.1 | 8.7 ± 0.5 | 4.9 ± 0.7 | 1/4 |
